In PubChem BioAssay (NCI):
Several values for one entry are separate records, joined by “and”; a condition that tells them apart may be missing. Equal entries are not always repeated.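 Where inhibition never reached the appropriate level, the endpoint shown equals the highest concentration tested. Otherwise, values were interpolated linearly from a five-concentration, 48-hour dose response in 96-well plates. At the GI50, growth is halved. The concentration for full growth arrest is given as TGI.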

Key:
Assay in all cases: inhibition of tumour cell growth, NCI panel, 48 h
KM20L2 colon = system: KM20L2 colon
LXFL 529 NSCLC = system: LXFL 529 NSCLC
M19-MEL melanoma = system: M19-MEL melanoma
XF 498 CNS = system: XF 498 CNS
DMS 273 small cell lung = system: DMS 273 small cell lung
RXF-631 renal = system: RXF-631 renal
SNB-78 CNS = system: SNB-78 CNS
HOP-18 NSCLC = system: HOP-18 NSCLC
MDA-N = system: MDA-N

SMILES | TGI (KM20L2 colon) | TGI (LXFL 529 NSCLC) | TGI (M19-MEL melanoma) | TGI (XF 498 CNS) | TGI (DMS 273 small cell lung) | TGI (RXF-631 renal) [µM] | TGI (SNB-78 CNS) | TGI (HOP-18 NSCLC) | TGI (MDA-N) [µM] | other results
CN(C)c1ccc(/C=C/C(=O)c2ccccc2)cc1Br | 57.6 µM | 28.8 µM | 37.1 µM | 31.2 µM |  |  |  |  |  | 
COc1ccc2c(c1)CCc1cnn(C3OC(COC(C)=O)C(OC(C)=O)C(OC(C)=O)C3OC(C)=O)c1-2 (stereo not given) | 51.8 µM | 41.4 µM | > 100 µM | 52.1 µM | > 100 µM | > 100 | > 100 µM |  |  | 
COC(=O)CCC(=O)CC(=O)C(=O)Nc1ccc(F)cc1 | > 100 µM | > 100 µM | > 100 µM |  | > 100 µM |  | > 100 µM | > 100 µM |  | 
CSC(=S)N/N=C/c1ccccc1 |  |  |  |  |  |  |  |  | > 100 | 
COC(=O)CSc1ccccc1 | > 100 µM | > 100 µM | > 100 µM | > 100 µM | > 100 µM | > 100 | > 100 µM | > 100 µM |  | 
COc1ccc2c(CC(=O)O)cc(=O)oc2c1 |  |  |  |  |  |  |  |  | > 100 | 
COc1ccc2nc3cccc([N+](=O)[O-])c3c(NCCN(CCO)CCO)c2c1 |  |  |  |  |  |  |  |  | 0.0769 | GI50 (MDA-N): 0.023 µM
CNc1nnnn1C1OC(CO)C(O)C1O (stereo not given) | > 100 µM | > 100 µM | > 100 µM | 83.4 µM | > 100 µM | > 100 | > 100 µM |  |  | 
C[C@]12CCC3[C@@H](C[C@H]4OC(=O)[C@@]35CCC(=O)C=C45)C1CCC2=O (stereo not given in full) |  | > 100 µM | > 100 µM | > 100 µM |  |  |  | > 100 µM |  | 
COc1c(OC(C)=O)c(OC(C)=O)cc2c1-c1ccc(OC)c(=O)cc1C(NC(C)=O)CC2 (stereo not given) | 0.0795 µM | > 53 µM | > 100 µM | 16.2 µM |  | 18.2 | > 100 µM | > 100 µM |  | 
Cc1cc2c(cc1C)N1Cc3c(ccc(C)c3C)N(C2)C1 (tested in a mixture with another compound) | > 100 µM | > 100 µM | > 100 µM | > 100 µM | > 100 µM |  | > 100 µM | > 100 µM |  | 
O=C1C(c2ccc([N+](=O)[O-])cc2)=[N+]([O-])c2ccccc21 |  | > 100 µM | 41.5 µM |  |  |  | 61.1 µM | 26.5 µM |  | 
Cc1cc2cc(Cl)ccc2nc1C(=O)c1ccccc1 | > 100 µM | > 100 µM | > 100 µM | > 100 µM | > 100 µM | > 100 | > 100 µM | > 100 µM |  | 
COc1cc(C2c3cc4c(cc3[C@H](NC(=O)c3cccs3)C3COC(=O)[C@H]23)OCO4)cc(OC)c1OC (stereo not given in full) | 0.0396 µM | 47.2 µM |  |  | > 100 µM |  | > 100 µM | > 100 µM |  | 
O=C(Nc1ccc(Cl)c(Cl)c1)C(=O)Nn1c(=S)[nH]c2ccccc2c1=O | > 100 µM | > 100 µM | > 100 µM | > 100 µM | > 100 µM |  | > 100 µM | > 100 µM |  | 
O=C(O)CNC(=O)c1ccccc1O |  |  |  |  |  |  |  |  | > 100 | 
NC(=O)c1nnn(Cc2cc(Cl)c(C(=O)c3ccc(Cl)cc3)c(Cl)c2)c1N | > 9.09 µM and 17.4 µM | > 9.09 µM and 21.1 µM | > 9.09 µM and 27.4 µM | > 9.09 µM and 22.9 µM | > 9.09 µM and 21.2 µM | 53.9 | > 9.09 µM and 52.2 µM | > 9.09 µM and 36.4 µM | > 46.9 | GI50 (DMS 273 small cell lung): 5.77 µM; GI50 (HOP-18 NSCLC): 21.7 µM; GI50 (KM20L2 colon): 2.79 µM; GI50 (M19-MEL melanoma): 14.1 µM; GI50 (SNB-78 CNS): 19 µM; GI50 (XF 498 CNS): 10.8 µM
CCOC(=O)C1c2[nH]c3ccccc3c2CCN1C(=O)c1ccco1 (stereo not given) |  |  |  |  |  |  |  |  | > 10 | 
O=C1OC(c2ccccc2)C2CC3CC4(CCC3CN12)OCCO4 (stereo not given) | > 100 µM | > 100 µM |  | > 100 µM | > 100 µM | > 100 | > 100 µM |  |  | 
O=c1oc2c3ccc4ccccc4c3n(CCN3CCOCC3)c2c2ccccc12 | > 100 µM | > 100 µM | > 100 µM |  |  |  |  | > 100 µM |  | 

SMILES | TGI (KM20L2 colon) | TGI (LXFL 529 NSCLC) | TGI (M19-MEL melanoma) | TGI (XF 498 CNS) | TGI (DMS 273 small cell lung) | TGI (RXF-631 renal) [µM] | TGI (SNB-78 CNS) | TGI (HOP-18 NSCLC) | TGI (MDA-N) [µM] | other results
Cc1cc(Cl)ccc1NC(=O)/C(Cl)=C(/Cl)C(=O)O |  |  |  |  |  |  |  |  | 60.9 | 
COc1ccc(CN2C(=O)C(Cc3cc(OC)c(OC)c(C)c3OC)N(C(=O)OC(C)C)C(=O)/C2=C/c2cc(OC)c(OC)c(C)c2OC)cc1 (stereo not given) | > 100 µM | > 100 µM | > 100 µM |  | > 100 µM | > 100 |  | > 100 µM |  | 
O=S(=O)(O)c1ccc(Cl)cc1.[Cd] |  |  |  |  |  |  |  |  | 68.9 | GI50 (MDA-N): 22.1 µM
CC(=O)Oc1ccc2ccc(=O)oc2c1OC(C)=O |  |  |  |  |  |  |  |  | > 100 | 
CN(C)c1ccccc1CC(c1c[nH]c2ccccc12)c1c[nH]c2ccccc12 | 22.6 µM |  | 29.1 µM | 31.5 µM | 27.9 µM |  | 32.5 µM |  |  | 
COc1ccc(NC(=O)CC/C(CC(=O)c2ccccc2Cl)=N\Nc2nnc(C)n2N)cc1 | > 100 µM | > 100 µM | > 100 µM |  | > 100 µM | > 100 | > 100 µM | > 100 µM |  | 
COCC1C(=O)c2cc3c(cc2C12C=CC1(C=C2)OCCO1)OCO3 (stereo not given) | 22.7 µM | 9.82 µM | 14.7 µM | 17.9 µM | 29.9 µM | 27.7 |  |  |  | 
Cc1cc(C)nc(NS(=O)(=O)c2ccc(NC(=O)c3cccc4c(Nc5ccc(S(=O)(=O)Nc6nc(C)cc(C)n6)cc5)c5ccccc5nc34)cc2)n1 | 42.9 µM | 70.3 µM | > 100 µM | 79.7 µM | 38.9 µM | 42.6 | > 100 µM | 29.7 µM |  | 
Nc1nc(=O)n(C2CC(O)C(O)C(CO)O2)cc1F (stereo not given) | > 100 µM | > 100 µM | > 100 µM | > 100 µM |  | > 100 | > 100 µM | > 100 µM |  | 
COc1ccc(C(=O)/C(=N/Nc2ccccc2)c2ccc(OC)cc2)cc1 | 51.5 µM | > 100 µM | > 100 µM | > 100 µM | > 100 µM | > 100 | > 100 µM | > 100 µM |  | 
CC1(C)CC(=O)C(C(c2cccc(O)c2O)C2C(=O)CC(C)(C)CC2=O)C(=O)C1 |  |  |  |  |  |  |  |  | > 100 | 
C[N+](C)(C)CCC(=O)N1C/C(=C\c2ccccc2)C(=O)/C(=C/c2ccccc2)C1 | 22 µM | 13.5 µM | 15.5 µM | 27.6 µM | 5.33 µM |  | 22.9 µM | 26.7 µM | 3.36 | 
C/C(=N\Nc1ccc2ccccc2n1)c1ccccc1O |  |  |  |  |  |  |  |  | > 100 | 
COC(=O)NNc1c([N+](=O)[O-])cnn(-c2ccccc2)c1=O | 7.78 µM | 3.16 µM | 3.43 µM |  | 4 µM | 3.88 |  | 6.28 µM | 4.79 | 
N#Cc1ccc(/C=N\N2C(=O)c3ccccc3C2=O)cc1 | > 100 µM | > 100 µM | > 100 µM | > 100 µM | > 100 µM |  | > 100 µM | > 100 µM |  | 
O=C(c1ccccn1)c1nnn2ccccc12 |  |  |  |  |  |  |  |  | > 100 | 
[N-]=[N+]=Nc1ccccc1-[n+]1noc([O-])c1Br | > 100 µM | > 100 µM | > 100 µM |  |  |  |  | > 100 µM |  | 
CCOc1cc(C=O)c2c(ccc3ccc(OC)c(OC)c32)c1OC |  |  |  |  |  |  |  |  | > 100 | 
COc1ccc2nc3cc(Cl)ccc3c(NCCC(=O)OCC(O)C(O)C(O[C@H](C)C(=O)NC(C)C(=O)NC(CCC(N)=O)C(=O)OCc3ccccc3)C(C=O)NC(C)=O)c2c1 (stereo not given in full) | 32.7 µM | 31.2 µM | 34.4 µM | 33.5 µM | 27.6 µM | 36.9 | 80.8 µM |  |  | 
Cn1c(=O)nc2n(-c3ccc(F)cc3)c3ccccc3nc-2c1=O | 48.7 µM | > 100 µM | 10.6 µM | 34.3 µM | 36 µM |  | 42.2 µM | > 100 µM |  | 
